Laboratory results reported in patent publication US20230021483A1, “[…] […] METHOD AND CLASSIFICATION OF PHARMACEUTICAL COMPONENTS BY USING TRANSCRIPTOMES” (National Institutes of Biomedical Innovation, Health and …, priority 2016, published 2023).

Assays:
[1] = test system: adjuvant-associated biological themes in LV, SP, LN; conditions: LV, ID
Procedure, shortened: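 Per-mouse whole-organ transcriptomes; genes with eij/ei(c)>2.0 tested for theme enrichment via TargetMine (GO, KEGG, Reactome, others), Fisher's exact test, Holm-Bonferroni correction. Themes shared by all three mice kept at p<0.05, using the smallest p. Score per adjuvant-associated term = Σ−log(p) of matching themes.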

[2] = test system: liver (LV); experiment: Whole organ transcriptome (GeneChip microarray) of liver 6 h after adjuvant administration: sDEGs, hierarchical clustering; format: in vivo, C57BL/6 mice; conditions: hierarchical clustering, liver; further: key: G1 (interferon signaling); G2 (metabolism of lipids and lipoproteins); G3 (response to stress); G4 (response to wounding); G5 (phosphate-containing compound metabolic process); G6 (phagosome)

Nc1nc2c(ncn2[C@@H]2O[C@@H]3COP(=O)(O)O[C@H]4[C@@H](O)[C@H](n5cnc6c(=O)[nH]c(N)nc65)O[C@@H]4COP(=O)(O)O[C@H]3[C@H]2O)c(=O)[nH]1 [cdiGMP, Cyclic diguanylate monophosphate]
GO annotation: Cytokine-cytokine receptor interaction (Term: cytokine) [1]: 13.8
GO annotation: Cytokine-cytokine receptor interaction|Endocytosis (Term: cytokine) [1]: 33.9
GO annotation: I-kappaB kinase/NF-kappaB signaling (Term: NF-kappa B signaling pathway) [1]: 13.8
GO annotation: NF-kappa B signaling pathway (Term: NF-kappa B signaling pathway) [1]: 15.7
GO annotation: TNF signaling pathway (Term: TNF signaling pathway) [1]: 31.3
GO annotation: activation of immune response (Term: immune response) [1]: 17.9
GO annotation: activation of innate immune response (Term: innate immune response) [1]: 21.2
GO annotation: acute inflammatory response (Term: inflammatory response) [1]: 0
GO annotation: adaptive immune response (Term: adaptive immune response) [1]: 10
GO annotation: adaptive immune response based on somatic recombination of immune receptors built from immunoglobulin superfamily domains (Term: adaptive immune response) [1]: 10.6
GO annotation: apoptotic process (Term: apoptosis) [1]: 12.1
GO annotation: apoptotic signaling pathway (Term: apoptosis) [1]: 0
GO annotation: cell chemotaxis (Term: chemotaxis) [1]: 0
GO annotation: cell death (Term: cell death) [1]: 17.7
GO annotation: cell migration (Term: migration) [1]: 0
GO annotation: cellular response to cytokine stimulus (Term: cytokine) [1]: 38.8
GO annotation: cellular response to interferon-alpha (Term: IFN alpha) [1]: 7.42
GO annotation: cellular response to stress (Term: stress) [1]: 0
GO annotation: chemokine production (Term: chemokine) [1]: 8.52
GO annotation: chemokine-mediated signaling pathway (Term: chemokine) [1]: 5.9
GO annotation: chemotaxis (Term: chemotaxis) [1]: 0
GO annotation: cytokine biosynthetic process (Term: cytokine) [1]: 7.93
GO annotation: cytokine metabolic process (Term: cytokine) [1]: 7.39
GO annotation: cytokine production (Term: cytokine) [1]: 31.3
GO annotation: cytokine secretion (Term: cytokine) [1]: 0
GO annotation: cytokine-mediated signaling pathway (Term: cytokine) [1]: 20
GO annotation: death (Term: cell death) [1]: 12.1
GO annotation: defense response (Term: defense response) [1]: 80.9
GO annotation: defense response to Gram-positive bacterium (Term: defense response) [1]: 7.18
GO annotation: defense response to bacterium (Term: defense response) [1]: 10.5
GO annotation: defense response to other organism (Term: defense response) [1]: 44.1
GO annotation: defense response to protozoan (Term: defense response) [1]: 5.31
GO annotation: defense response to virus (Term: defense response) [1]: 24.6
GO annotation: granulocyte chemotaxis (Term: chemotaxis) [1]: 0
GO annotation: granulocyte migration (Term: migration) [1]: 0
GO annotation: immune response (Term: immune response) [1]: 52.3
GO annotation: immune response-activating signal transduction (Term: immune response) [1]: 19.3
GO annotation: immune response-regulating signaling pathway (Term: immune response) [1]: 23.5
GO annotation: inflammatory response (Term: inflammatory response) [1]: 26.1
GO annotation: innate immune response (Term: innate immune response) [1]: 40.7
GO annotation: innate immune response-activating signal transduction (Term: innate immune response) [1]: 20.3
GO annotation: interferon-alpha production (Term: IFN alpha) [1]: 7.69
GO annotation: intrinsic apoptotic signaling pathway (Term: apoptosis) [1]: 0
GO annotation: leukocyte chemotaxis (Term: chemotaxis) [1]: 0
GO annotation: leukocyte migration (Term: migration) [1]: 0
GO annotation: leukocyte migration involved in inflammatory response (Term: inflammatory response) [1]: 0
GO annotation: lymphocyte chemotaxis (Term: chemotaxis) [1]: 0
GO annotation: lymphocyte migration (Term: migration) [1]: 0
GO annotation: myeloid leukocyte migration (Term: migration) [1]: 0
GO annotation: negative regulation of apoptotic process (Term: apoptosis) [1]: 0
GO annotation: negative regulation of cell death (Term: cell death) [1]: 0
GO annotation: negative regulation of cytokine production (Term: cytokine) [1]: 6.2
GO annotation: negative regulation of defense response (Term: defense response) [1]: 8.05
GO annotation: negative regulation of immune response (Term: immune response) [1]: 6.54
GO annotation: negative regulation of innate immune response (Term: innate immune response) [1]: 10.4
GO annotation: negative regulation of programmed cell death (Term: cell death) [1]: 0
GO annotation: neutrophil chemotaxis (Term: chemotaxis) [1]: 0
GO annotation: neutrophil migration (Term: migration) [1]: 0
GO annotation: positive regulation of I-kappaB kinase/NF-kappaB signaling (Term: NF-kappa B signaling pathway) [1]: 7.15
GO annotation: positive regulation of adaptive immune response (Term: adaptive immune response) [1]: 0
GO annotation: positive regulation of apoptotic process (Term: apoptosis) [1]: 0
GO annotation: positive regulation of cell death (Term: cell death) [1]: 0
GO annotation: positive regulation of cell migration (Term: migration) [1]: 0
GO annotation: positive regulation of chemokine production (Term: chemokine) [1]: 8.31
GO annotation: positive regulation of chemotaxis (Term: chemotaxis) [1]: 0
GO annotation: positive regulation of cytokine biosynthetic process (Term: cytokine) [1]: 3.62
GO annotation: positive regulation of cytokine production (Term: cytokine) [1]: 23.6
GO annotation: positive regulation of defense response (Term: defense response) [1]: 35.8
GO annotation: positive regulation of immune response (Term: immune response) [1]: 24.4
GO annotation: positive regulation of inflammatory response (Term: inflammatory response) [1]: 0
GO annotation: positive regulation of innate immune response (Term: innate immune response) [1]: 22.3
GO annotation: positive regulation of interferon-alpha production (Term: IFN alpha) [1]: 8.97
GO annotation: positive regulation of leukocyte chemotaxis (Term: chemotaxis) [1]: 0
GO annotation: positive regulation of leukocyte migration (Term: migration) [1]: 3.33
GO annotation: positive regulation of programmed cell death (Term: cell death) [1]: 0
GO annotation: positive regulation of response to wounding (Term: wounding) [1]: 0
GO annotation: positive regulation of tumor necrosis factor superfamily cytokine (Term: cytokine) [1]: 0
GO annotation: production of molecular mediator of immune response (Term: immune response) [1]: 0
GO annotation: programmed cell death (Term: cell death) [1]: 14
GO annotation: regulation of I-kappaB kinase/NF-kappaB signaling (Term: NF-kappa B signaling pathway) [1]: 8.16
GO annotation: regulation of adaptive immune response (Term: adaptive immune response) [1]: 8.01
GO annotation: regulation of adaptive immune response based on somatic recombination of immune receptors built from immunoglobulin superfamily domains (Term: adaptive immune response) [1]: 3.64
GO annotation: regulation of apoptotic process (Term: apoptosis) [1]: 4.93
GO annotation: regulation of apoptotic signaling pathway (Term: apoptosis) [1]: 0
GO annotation: regulation of cell death (Term: cell death) [1]: 4.48
GO annotation: regulation of cell migration (Term: migration) [1]: 0
GO annotation: regulation of chemokine production (Term: chemokine) [1]: 9.64
GO annotation: regulation of chemotaxis (Term: chemotaxis) [1]: 0
GO annotation: regulation of cytokine biosynthetic process (Term: cytokine) [1]: 3.81
GO annotation: regulation of cytokine production (Term: cytokine) [1]: 31.6
GO annotation: regulation of defense response (Term: defense response) [1]: 56.5
GO annotation: regulation of defense response to virus (Term: defense response) [1]: 0
GO annotation: regulation of defense response to virus by host (Term: defense response) [1]: 0
GO annotation: regulation of immune response (Term: immune response) [1]: 29.4
GO annotation: regulation of inflammatory response (Term: inflammatory response) [1]: 12.3
GO annotation: regulation of innate immune response (Term: innate immune response) [1]: 33.4
GO annotation: regulation of interferon-alpha production (Term: IFN alpha) [1]: 8.3
GO annotation: regulation of intrinsic apoptotic signaling pathway (Term: apoptosis) [1]: 0
GO annotation: regulation of leukocyte chemotaxis (Term: chemotaxis) [1]: 0
GO annotation: regulation of leukocyte migration (Term: migration) [1]: 0
GO annotation: regulation of programmed cell death (Term: cell death) [1]: 5.36
GO annotation: regulation of response to stress (Term: stress) [1]: 42.9
GO annotation: regulation of response to wounding (Term: wounding) [1]: 10.7
GO annotation: regulation of tumor necrosis factor superfamily cytokine production (Term: cytokine) [1]: 4.03
GO annotation: response to cytokine (Term: cytokine) [1]: 56.3
GO annotation: response to interferon-alpha (Term: IFN alpha) [1]: 12.6
GO annotation: response to stress (Term: stress) [1]: 56.2
GO annotation: response to wounding (Term: wounding) [1]: 11.4
GO annotation: taxis (Term: chemotaxis) [1]: 0
GO annotation: tumor necrosis factor superfamily cytokine production (Term: cytokine) [1]: 3.79
IFN beta: cellular response to interferon-beta [1]: 23.1
IFN beta: interferon-beta production [1]: 8.61
IFN beta: positive regulation of interferon-beta production [1]: 13.2
IFN beta: regulation of interferon-beta production [1]: 9.22
IFN beta: response to interferon-beta [1]: 26.5
IFN gamma: cellular response to interferon-gamma [1]: 10.1
IFN gamma: interferon-gamma production [1]: 5.35
IFN gamma: regulation of interferon-gamma production [1]: 0
IFN gamma: response to interferon-gamma [1]: 10.8
interleukin-6: interleukin-6 production [1]: 7.8
interleukin-6: positive regulation of interleukin-6 production [1]: 0
interleukin-6: regulation of interleukin-6 production [1]: 8.27
interleukin-12: interleukin-12 production [1]: 6.51
interleukin-12: positive regulation of interleukin-12 production [1]: 0
interleukin-12: regulation of interleukin-12 production [1]: 6.99
adjuvant group (cluster) in LV [2]: G1
